The source of these data is patent US20260253701A1, “EEG BIOMARKERS FOR ALPHA5 PAM DOSAGE DETERMINATION AND THERAPEUTIC MONITORING” (priority 2022, published 2026).

The target of test [1] is T1, α5 subunit receptors (Homo sapiens, UniProt P18507+P31644). Nature of the test: whole-cell voltage-clamp recordings of tonic inhibition current in human cortical L2/3 Pyr neurons. More on the design: Neocortical tissue resected during tumor resection and anterior temporal lobectomy; from tissue; host or cells: human neocortical slices (resected frontal/temporal lobe tissue), L2/3 pyramidal neurons. It is filed as cell-based. An excerpt: Electrophysiology Data. We used whole-cell voltage-clamp recordings of baseline tonic inhibition current and tonic inhibition current during exposure to α5-PAM in human cortical L2/3 Pyr neurons (10 cells: 9 cells from 3 male subjects, 1 cell from 1 subject) from patients undergoing a standard anterior temporal lobectomy or tumor resection from the frontal or temporal lobe. Written informed consent was obtained from all participants, in accordance with the Declaration of Helsinki and the University Health Network Research Ethics board.
The data was collected using surgery resection, solutions, tissue preparation, and recording equipment described in Chameh et al., 2021 Nature Communications, 12(1), 2497 and Yao et al., 2022 Cell Reports, 38(2). Neocortical tissue resected during tumor resection and anterior temporal lobectomy was immediately submerged in ice-cold (~4° C.) cutting solution and transferred to a recording chamber within 20 minutes.
For recordings, slices were transferred to a recording chamber mounted on a fixed-stage upright microscope (Axioskop 2 FS MOT; Carl Zeiss, Germany). Slices were continually perfused at 4 ml/min with standard aCSF at 32-34° C. Whole-cell patch-clamp recordings were obtained using a Multiclamp 700 A amplifier, Axopatch 200B amplifier, and pClamp 9.2 and pClamp 10.6 data acquisition software (Axon instruments, Molecular Devices, USA). Subsequently, electrical signals were digitized at 20 kHz using a 1320X digitizer. For voltage-clamp recordings of tonic current, low-resistance patch pipettes (2-4 MΩ) were filled with a CsCl-based solution containing (in mM) 140 CsCl, 10 EGTA, 10 Hepes, 2 MgCl2, 2 Na2ATP, 0.3 GTP, and 5 QX314 adjusted to pH 7.3 with CsOH. The junction potential was calculated to be 4.3 mV and the holding potential was-74.3 mV after junction potential correction. In this configuration, 5 μM GABA, 25 μM AP5, 10 μM CNQX, and 10 μM CGP-35348 were first applied to generate larger GABA-dependent currents and assess baseline tonic inhibition currents while also blocking AMPA, NMDA, and GABAB mediated currents. […]
Target sequence in this assay (P31644 32-462): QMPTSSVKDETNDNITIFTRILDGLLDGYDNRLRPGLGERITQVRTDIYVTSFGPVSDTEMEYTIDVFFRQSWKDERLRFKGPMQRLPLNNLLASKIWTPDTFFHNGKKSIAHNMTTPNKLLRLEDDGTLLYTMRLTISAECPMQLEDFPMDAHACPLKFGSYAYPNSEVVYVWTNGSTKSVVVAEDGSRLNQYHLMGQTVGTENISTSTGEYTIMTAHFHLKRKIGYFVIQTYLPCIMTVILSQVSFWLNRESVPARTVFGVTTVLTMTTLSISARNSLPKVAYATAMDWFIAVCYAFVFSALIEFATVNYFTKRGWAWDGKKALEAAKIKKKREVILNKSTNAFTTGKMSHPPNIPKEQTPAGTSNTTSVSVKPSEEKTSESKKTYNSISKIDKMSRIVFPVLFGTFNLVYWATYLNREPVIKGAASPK
Target sequence in this assay (P28472 26-473, further chain): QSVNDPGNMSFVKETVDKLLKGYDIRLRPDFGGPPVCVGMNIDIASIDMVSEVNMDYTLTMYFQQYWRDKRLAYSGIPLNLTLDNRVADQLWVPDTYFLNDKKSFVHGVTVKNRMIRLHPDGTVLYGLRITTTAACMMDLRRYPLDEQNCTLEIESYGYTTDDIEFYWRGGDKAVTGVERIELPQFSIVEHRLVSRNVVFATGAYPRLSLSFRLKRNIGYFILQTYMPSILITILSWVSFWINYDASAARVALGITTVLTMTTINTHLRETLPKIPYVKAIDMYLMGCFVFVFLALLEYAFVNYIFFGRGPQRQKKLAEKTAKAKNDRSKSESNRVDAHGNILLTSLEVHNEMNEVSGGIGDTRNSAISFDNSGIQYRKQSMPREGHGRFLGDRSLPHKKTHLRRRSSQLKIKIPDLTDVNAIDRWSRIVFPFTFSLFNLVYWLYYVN
Target sequence in this assay (P18507 40-467): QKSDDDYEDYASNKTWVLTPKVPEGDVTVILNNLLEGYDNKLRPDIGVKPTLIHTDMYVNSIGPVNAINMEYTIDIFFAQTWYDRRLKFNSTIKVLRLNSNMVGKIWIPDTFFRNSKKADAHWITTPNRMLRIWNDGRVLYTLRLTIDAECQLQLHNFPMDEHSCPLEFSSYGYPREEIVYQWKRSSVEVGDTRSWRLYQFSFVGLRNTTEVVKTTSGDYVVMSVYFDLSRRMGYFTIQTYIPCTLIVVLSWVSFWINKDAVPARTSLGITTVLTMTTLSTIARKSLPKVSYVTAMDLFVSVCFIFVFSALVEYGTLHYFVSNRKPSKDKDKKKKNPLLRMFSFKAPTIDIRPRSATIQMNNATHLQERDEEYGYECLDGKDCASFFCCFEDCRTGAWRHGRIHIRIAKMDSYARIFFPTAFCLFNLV

For test [2], the system named is chronically stressed mice. The following applies: mouse, in vivo; cited from earlier work.
Test [3] deals with T1, α5 subunit receptors. The following applies: 3 μM; higher levels more strongly target α1, α2, & α3 subunit receptors; cited from earlier work.
Target sequence in this assay (P28472 26-473): as the sequence (P28472 26-473, further chain) above
Target sequence in this assay (P18507 40-467): as the sequence (P18507 40-467) above
Target sequence in this assay (P31644 32-462): as the sequence (P31644 32-462) above

As to `C#Cc1ccc2c(c1)C(c1ccccc1F)=N[C@H](C)c1c(C(=O)N(C)C)ncn1-2` [α5-PAM, GL-II-73], the “mean amplitude of tonic inhibitory current relative to endogenous current in picrotoxin condition” value at α5 subunit receptors [1] (3 μM with 5 μM GABA, ± standard error of the mean, n=10 cells, baseline 65.86±10.28) was 95.28±14.52 pA. The “tonic inhibition current magnitude” value at α5 subunit receptors [1] (therapeutically relevant dose (3 μM) of α5-PAM in addition to GABA, mean±standard deviation, GABA alone −65.9±30.8) is listed as −95.3±43.6 pA. Moreover, on α5 subunit receptors [1] (α5-PAM in addition to GABA vs GABA alone), the “increase in current magnitude” value is reported as 52%. Also, in test [2], the “effect in chronically stressed mice” value is listed as “pro-cognitive effects”. Also, the subunit selectivity result on α5 subunit receptors [3] is “selectively targeting α5 subunit receptors”.
